Experimental data reported in publication PMC11995211, “Design, Synthesis, and Evaluation of a New Fluorescent Ligand for the M2 Muscarinic Acetylcholine Receptor” (ACS Medicinal Chemistry Letters, 2025).

Key:
[1] = target: T1, hM2R (Homo sapiens, UniProt P08172); test: Radioligand competition binding, [3H]-scopolamine (N-methyl), CHO cell membranes, hM2R; conditions: mean ± SD, n = 3; membranes from CHO cells transfected with hM2R; read-out: Receptor Ki M2
T1 construct: expressed in transfected cells; host or cells: CHO cell membranes
T1 sequence (P08172 1-466): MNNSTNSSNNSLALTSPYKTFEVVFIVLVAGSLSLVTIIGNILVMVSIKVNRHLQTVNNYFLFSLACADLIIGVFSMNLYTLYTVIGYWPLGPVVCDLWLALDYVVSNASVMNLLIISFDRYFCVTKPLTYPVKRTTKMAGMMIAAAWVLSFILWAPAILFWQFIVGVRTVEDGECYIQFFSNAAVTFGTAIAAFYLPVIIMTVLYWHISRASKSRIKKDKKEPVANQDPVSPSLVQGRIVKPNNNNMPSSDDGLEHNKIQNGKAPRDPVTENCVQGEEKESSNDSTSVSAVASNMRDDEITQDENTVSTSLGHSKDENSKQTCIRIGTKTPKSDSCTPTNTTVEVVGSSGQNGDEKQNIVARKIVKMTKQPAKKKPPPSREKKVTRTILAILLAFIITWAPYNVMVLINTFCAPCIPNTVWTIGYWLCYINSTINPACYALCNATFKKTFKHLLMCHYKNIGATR

[2] = target: T2, hM3R (Homo sapiens, UniProt P20309); test: Radioligand competition binding, [3H]-scopolamine (N-methyl), CHO cell membranes, hM3R; conditions: mean ± SD, n = 3; membranes from CHO cells transfected with hM3R; read-out: Receptor Ki M3
T2 construct: expressed in transfected cells; host or cells: CHO cell membranes
T2 sequence (P20309 whole entry): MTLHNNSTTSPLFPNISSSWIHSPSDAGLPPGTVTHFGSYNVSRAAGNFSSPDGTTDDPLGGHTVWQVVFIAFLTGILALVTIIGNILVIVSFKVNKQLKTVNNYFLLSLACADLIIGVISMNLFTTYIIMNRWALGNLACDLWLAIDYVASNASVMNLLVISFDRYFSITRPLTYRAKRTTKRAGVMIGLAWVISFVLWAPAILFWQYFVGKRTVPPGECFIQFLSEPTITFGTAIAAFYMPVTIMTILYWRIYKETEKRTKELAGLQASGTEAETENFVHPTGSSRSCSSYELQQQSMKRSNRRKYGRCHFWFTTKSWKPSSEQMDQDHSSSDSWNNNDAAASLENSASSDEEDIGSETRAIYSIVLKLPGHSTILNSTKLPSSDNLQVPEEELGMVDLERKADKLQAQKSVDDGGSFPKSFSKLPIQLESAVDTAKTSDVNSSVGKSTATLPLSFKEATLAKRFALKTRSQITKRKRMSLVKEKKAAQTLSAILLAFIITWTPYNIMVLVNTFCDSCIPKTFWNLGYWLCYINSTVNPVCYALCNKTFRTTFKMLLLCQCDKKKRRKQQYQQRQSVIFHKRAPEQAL

[3] = target: T3, hM4R (Homo sapiens, UniProt P08173); test: Radioligand competition binding, [3H]-scopolamine (N-methyl), CHO cell membranes, hM4R; conditions: mean ± SD, n = 3; membranes from CHO cells transfected with hM4R; read-out: Receptor Ki M4
T3 construct: expressed in transfected cells; host or cells: CHO cell membranes
T3 sequence (P08173 1-479): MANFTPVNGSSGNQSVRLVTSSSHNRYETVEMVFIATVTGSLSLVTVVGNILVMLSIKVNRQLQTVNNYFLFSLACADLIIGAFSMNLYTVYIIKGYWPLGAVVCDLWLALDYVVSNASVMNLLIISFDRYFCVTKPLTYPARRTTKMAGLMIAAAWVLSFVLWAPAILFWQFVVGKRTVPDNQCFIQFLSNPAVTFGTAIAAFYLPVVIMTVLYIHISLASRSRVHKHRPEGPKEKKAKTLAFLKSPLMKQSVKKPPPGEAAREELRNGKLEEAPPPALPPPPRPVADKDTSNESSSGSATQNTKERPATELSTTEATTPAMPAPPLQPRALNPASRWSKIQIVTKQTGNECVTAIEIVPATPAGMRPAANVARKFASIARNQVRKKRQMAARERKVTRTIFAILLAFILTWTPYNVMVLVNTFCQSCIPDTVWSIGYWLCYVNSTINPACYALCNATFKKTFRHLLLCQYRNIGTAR

[4] = target: T4, GLuc–M2R (Homo sapiens, UniProt P08172); test: BRET-based ligand binding on HEK 293T cells expressing GLuc–M2R
T4 construct: expressed in transfected cells
T4 sequence (P08172 1-466): T1 sequence (P08172 1-466)

[5] = Photophysical measurements and photostability; format: physicochemical
Procedure: Next, we investigated the photophysical properties of the fluorescent probe 33. In acetonitrile, the probe has an absorption maximum at 520 nm and a fluorescence maximum at 547 nm with a Stokes shift of 27 nm. […] The dye was pH sensitive, with intensity increasing at higher pH. Following a literature procedure, we examined the effect of protein (BSA) on the ligand. […]
Photophysical Measurements
Absorbance measurements were performed using a Jasco V-750 Spectrophotometer standard cell quartz cuvette with 1 cm light path length, 1 nm bandwidth, 400 nm/min recording speed) operating at 21 °C. The fluorescence measurements were carried out on a Jasco FP8300 spectrofluorometer in a standard cell quartz cuvette (1 cm light path length). Both the excitation and emission slit widths were both set to 2.5 nm, and the scanning speed was 400 nm/min. Pure solvents were used for blank correction. Absorbance spectra and excitation spectra were recorded in the range of […]. For the emission spectra, we excited the sample at the excitation maximum, and measured it from excitation maximum plus 10 nm to 800 nm.
Quantum yields were calculated by recording the fluorescence spectra of a series of different concentrations. The gradient of the integrated fluorescence intensities plotted against absorbance at the excitation wavelength was used for the calculation of the quantum yields:
The compound 33 was excited at 360 nm, OG488-NHS was used as reference (Φwater = […]
Solvent screening measurements were conducted using 5 μM solutions of the fluorescent probe 33 in various solvents, including acetonitrile, 1,4 -dioxane, water, toluene, dichloromethane, tetrahydrofuran, ethanol, PBS buffer (pH=5; 7; 7.4, 9), PBS buffer (pH=7.4) with 1% BSA, and ethyl acetate. Photostability measurements were performed with 5 μM solution of in PBS buffer (pH=7). The samples were exposed to a 4 W light-emitting diode emitting at 450 nm, and emission spectra were recorded.

[6] = target: T5, M2R–Cerulean (Homo sapiens, UniProt P08172); test: Confocal microscopy labeling of live HEK 293T cells; format: cell-based
T5 construct: expressed in transfected cells
T5 sequence (P08172 1-466): T1 sequence (P08172 1-466)

[7] = target: T6, HA–M2R (Homo sapiens, UniProt P08172); test: Two-photon microscopy labeling of live HEK 293T cells; format: cell-based; conditions: 300 nM
T6 sequence (P08172 1-466): T1 sequence (P08172 1-466)
From the text: We examined live M2R cells with two-photon microscopy as well (Figure ). A labeling pattern similar to that observed in the confocal microscopy studies was identified. Figure A illustrates 33 labeling in HA–M2R-transfected cells. […] Similarly to the confocal images, no dye labeling was detected inside the cells. Figure B presents a microscopic image of nontransfected cells, showing a minor degree of autofluorescence. […] For additional two-photon images, see Figures S7 and S8. […]
were examined using a two-photon laser scanning system (Femto2D-uncage, Femtonics Ltd., Budapest, Hungary). The imaging laser (Chameleon Ultra II, Coherent Ltd., Santa Clara, CA, USA) was set to 820 nm and to 2-3% intensity. The excitation was delivered to the slices and the fluorescent signal was collected using an XLUMPlanFI 20x lens (Olympus, Tokyo, Japan).
Before image acquisition, cells were washed twice, and the medium was replaced to modified Krebs–Ringer solution. After capturing the zero-point image, we added 300 nM 33. After two minutes we captured images in 33 and infrared transmission channels. After 3 minutes, unbound 33 was removed by washing the cells with modified Krebs–Ringer solution, and the image […]
(1 picture or pasted object on this page, not shown here)

Ki [1]: 2.4 ± 0.4 nM
Ki [2]: 55.6 ± 3.25 µM
Ki [3]: 54.1 ± 10.4 nM
Kd ([4]; 1-hour treatment, nonspecific with 100 μM atropine, read-out: dissociation constant (KD), equilibrium BRET-based ligand binding): 119 nM
kon ([4]; BRET-based kinetic ligand binding, read-out: association rate constant): 8060 M⁻¹ s⁻¹
koff ([4]; read-out: dissociation rate constant): 0.000867 s⁻¹
photostability: irradiation time to half of the original fluorescence intensity ([5]; PBS (pH 7), 5 μM, 4 W, 450 nm light): 10 min
Stokes shift ([5]; in acetonitrile): 27 nm
absorption maximum ([5]; in acetonitrile): 520 nm
brightness ([5]; in acetonitrile): 8501
fluorescence maximum ([5]; in acetonitrile): 547 nm
molar extinction coefficient (ε) ([5]; in acetonitrile): 42504.9 M^–1 cm^–1
fluorescence quantum yield (Φf) ([5]; in acetonitrile, OG488-NHS as reference): 0.20
labeling of M2R–Cerulean-expressing cells ([6]; 300 nM, 3 min, live transfected HEK 293T): significant labeling
labeling of nontransfected cells ([6]; 300 nM, 3 min, nontransfected HEK 293T): no labeling was observed
labeling after atropine pretreatment ([6]; 100 μM atropine 5 min before 300 nM 33): no labeling
labeling of HA–M2R-transfected cells ([7]; excited at 820 nm, live HEK 293T): selectively only at the plasma membrane
labeling of nontransfected cells ([7]; nontransfected HEK 293T): no receptor labeling was observed
Compound: O=C(CCOCCOCCNC(=O)c1ccc(-c2c3cc(F)c(=O)cc-3oc3cc(O)c(F)cc23)c(C(=O)O)c1)NCCOCCOCCNc1ccccc1C(=O)N1CCC(N2CCC(Cc3ccc(S(=O)(=O)c4cccc(Cl)c4)cc3)CC2)CC1 [Compound 33]
